Measurements published in US20240391887A1, “New VASHs inhibitors, conjugates thereof and their uses as drugs or as research tools” (Centre National de Recherche Scientifique (CNRS), priority 2021, published 2024).
pIC50: −log10 of the molar value. “Also recorded” adds a separate entry of the source. Like-named read-outs stand apart in the source and are kept apart here.

Legend:
VASH1 [1] = molecular target: T1, VASH1 (Homo sapiens, UniProt Q7L8A9); experiment: Standardized in vitro detyrosination ELISA based assay; type: biochemical; parameters: poly-histidine tag; made in house; host or cells: bacteria (IPTG induction); conditions: for Fold change/ LV-80: ratio IC50(compound)/IC50(LV80); for in vitro activity compared with reference compounds / in vitro VASH inhibition activity: in vitro detyrosination assay
Protocol: Standardized primary ELISA-based in vitro detyrosination assay in a 96-wells format has been developed according to the method disclosed in WO2020/012002. […] Primary (rabbit anti-detyrosinated tubulin) is incubated for 1 hour and after washes, secondary (anti-rabbit) antibody is added to each well. The plate is incubated 1 h at room temperature. Development consists of addition of TMB (3,3′,5,5′-Tetramethylbenzidine) to each well, incubation 30 minute at room temperature. The colour development is stopped by addition of 0.5 M sulfuric acid. OD is measured at 450 nm.
The in vitro inhibition activity of IBMT11 is tested by adding the compound to the reaction medium as described above (see part 2.2) and then detyrosination was analysed by immunoblotting with the indicated antibodies.

[2] = test system: VASH-mediated tubulin detyrosination in human CHL-1 cells; experiment: In cellulo taxol-induced tubulin detyrosination assay in CHL-1 cells
VASHs = conditions: background statement; read-out: IC50 in cellulo; cited from earlier work
VASH1 [3] = molecular target: T1, VASH1; experiment: In vitro detyrosination assay using recombinant VASH1 (immunoblot); conditions: concentration not given
carboxypeptidase A (CPA) = molecular target: T2, carboxypeptidase A (CPA) (Bos taurus, UniProt P00730); experiment: Carboxypeptidase A-dependent tubulin detyrosination in vitro; type: biochemical; conditions: concentration not given
T2 sequence (P00730 111-419): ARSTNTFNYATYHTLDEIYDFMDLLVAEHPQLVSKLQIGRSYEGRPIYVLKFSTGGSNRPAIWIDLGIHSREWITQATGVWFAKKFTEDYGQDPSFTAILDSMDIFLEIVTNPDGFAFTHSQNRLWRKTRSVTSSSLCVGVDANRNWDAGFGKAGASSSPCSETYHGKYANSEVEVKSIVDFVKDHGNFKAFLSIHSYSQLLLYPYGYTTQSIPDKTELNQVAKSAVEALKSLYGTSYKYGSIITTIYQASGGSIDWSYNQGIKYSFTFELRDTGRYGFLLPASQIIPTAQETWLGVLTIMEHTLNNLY

VASH2 = VASH2 (Homo sapiens, UniProt Q86V25); experiment: In vitro detyrosination assay, VASH2-mediated (immunoblot); type: biochemical; conditions: concentration not given
CHL-1 cells [4] = experiment: LC/MS bioanalysis of penetration and conversion in human cells; type: in vitro ADME; conditions: 25 uM, 1 hour
Protocol: CHL-1 cells have been treated with 25 uM of LV-104 for 1 hour. Culture supernatant have been collected immediately (initial) and 1 hour (supernatant) after compound addition. Cells have been washed, lysed and processed for LC/MS reading (Cells) to detect LV-104 and its bio converted form IBMT11.
Peptide stability in serum Human serum reaction sample contained 250 μl of heat inactivated Human Serum (Sigma Aldrich) and 750 μL of RPMI Medium 1640 (Sigma Aldrich). The reactions were initiated by addition of 50 μl compound (in mM stock solution in DMSO). Assays were performed in a shaking water bath at 37° C. 100 μl samples were collected at known time intervals and added to 200 μl of acetonitrile 1% % TFA to precipitate serum proteins. Cloudy sample was cooled to 4° C. for 15 min and then submitted to centrifugation for 10 min at 12,000 rpm to pellet the precipitated serum proteins. 150 μl of the clear supernatants were collected and peptides were finally analyzed by RPHPLC and LC-MS.
The bioanalysis of the penetration and the conversion of the compound LV-104 has been achieved using the above described protocol on human cells (see part 2.2). The results are illustrated on FIG. 14.

[5] = Solubility in water or PBS solution; type: physicochemical; conditions: compared with the corresponding base LV-80
CHL-1 cells [6] = experiment: MTT-based colorimetric cell viability assay; parameters: species or system human; conditions: 0.1 μM, 24 hours
Source text: We next choose a widely used MTT-based colorimetric assay to assess the potential metabolic toxicity and cell viability alterations in the presence of LV-80. […]

[7] = calculated in vitro IC50, read-out: IC50
[8] = read-out: IC50 on cells, compounds added prior Taxol-treatment, FIG. 12

Sequence of VASH2 (Q86V25 whole entry, species assumed): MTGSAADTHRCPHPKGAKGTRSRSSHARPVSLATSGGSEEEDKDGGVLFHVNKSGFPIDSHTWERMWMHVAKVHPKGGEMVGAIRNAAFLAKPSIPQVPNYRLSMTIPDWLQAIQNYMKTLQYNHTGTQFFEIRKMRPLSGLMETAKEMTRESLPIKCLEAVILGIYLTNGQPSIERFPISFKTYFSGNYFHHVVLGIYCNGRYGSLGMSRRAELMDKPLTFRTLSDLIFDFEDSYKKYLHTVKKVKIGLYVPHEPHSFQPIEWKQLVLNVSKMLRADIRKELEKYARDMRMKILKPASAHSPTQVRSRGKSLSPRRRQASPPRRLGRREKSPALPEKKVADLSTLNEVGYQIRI
T1 sequence (Q7L8A9 whole entry): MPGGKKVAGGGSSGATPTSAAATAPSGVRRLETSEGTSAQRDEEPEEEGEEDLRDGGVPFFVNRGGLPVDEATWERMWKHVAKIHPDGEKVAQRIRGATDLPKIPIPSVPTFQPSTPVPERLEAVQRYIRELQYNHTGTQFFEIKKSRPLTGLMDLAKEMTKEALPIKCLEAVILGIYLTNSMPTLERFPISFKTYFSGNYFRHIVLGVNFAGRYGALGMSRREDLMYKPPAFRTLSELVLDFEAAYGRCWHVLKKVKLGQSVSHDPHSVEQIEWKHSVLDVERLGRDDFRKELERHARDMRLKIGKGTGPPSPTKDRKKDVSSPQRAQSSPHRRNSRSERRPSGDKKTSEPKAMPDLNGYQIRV
T1 sequence (Q8N300 whole entry partner): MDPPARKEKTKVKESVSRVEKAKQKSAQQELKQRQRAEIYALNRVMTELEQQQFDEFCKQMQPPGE

O=C(O)CCC[C@@H](NC(=O)[C@H]1O[C@@H]1C(=O)N[C@@H](Cc1ccc(OCc2ccccc2)cc1)C(=O)O)C(=O)NCCc1ccccc1 [IBMT-29 hydro]
pIC50 (VASH1 [1]; [7]): 6.52 | Fold change/ LV-80 (VASH1 [1]): 1

CCOC(=O)[C@H]1O[C@@H]1C(=O)N[C@@H](Cc1ccc(O)cc1)C(=O)O [Epo-Y, reference compound]
pIC50 ([2]; read-out: IC50 in cellulo, taxol-induced detyrosination assay, FIG. 4F): 5.52 | effect on tubulin acetylation ([2]; taxol treated CHL-1 cells): without affecting | inhibition of tubulin detyrosination in cellulo ([2]; taxol treated CHL-1 cells): dose-dependently inhibited; also recorded: reduced tubulin detyrosination in a dose-dependent manner | pIC50 (VASHs): ~4.82

CC(C)(C)ONC(=O)CCC[C@@H](NC(=O)[C@H]1O[C@@H]1C(=O)N[C@@H](Cc1ccc(OCc2ccccc2)cc1)C(=O)O)C(=O)NCCc1ccccc1 [IBMT-31 hydro]
pIC50 (VASH1 [1]; [7]): 5.41 | Fold change/ LV-80 (VASH1 [1]): 13

CCOc1ccc(C[C@H](NC(=O)[C@H]2O[C@@H]2C(=O)N[C@H](Cc2ccc(OCC)cc2)C(=O)O)C(=O)O)cc1 [IBMT-11]
inhibition of tubulin detyrosination in cellulo ([2]; taxol treated CHL-1 cells): weak inhibition activity | pIC50 (VASH1 [1]; VASH1-mediated tubulin detyrosination, FIG. 13.A, read-out: in vitro IC50): 6.22 | in vitro activity compared with reference compounds (VASH1 [1]): more potently than Epo-Y | Fold change/ LV-80 (VASH1 [1]): 2

CCOC(=O)C1OC1C(=O)NC(Cc1ccc(O)cc1)C(=O)OC(C)(C)C (stereo not drawn) [SD-139, reference compound]
in vitro activity compared with reference compounds (VASH1 [1]): very less potent than LV-80

O=C(O)CC(Cc1ccccc1)C(=O)O (stereo not drawn) [BzISA, benzylsuccinic acid, reference compound]
effect on VASH1-mediated detyrosination in vitro (VASH1 [3]): did not affect | effect on CPA-dependent detyrosination (carboxypeptidase A (CPA)): completely abolished | effect on VASH2-mediated detyrosination in vitro (VASH2): did not affect

CCOC(=O)[C@H](Cc1ccc(OCC)cc1)NC(=O)[C@H]1O[C@@H]1C(=O)N[C@@H](Cc1ccc(OCC)cc1)C(=O)OCC [LV-104]
pIC50 [2, 8]: 8.10 | inhibition of tubulin detyrosination in cellulo ([2]; taxol treated CHL-1 cells): very efficient inhibition | conversion of prodrug into IBMT11 inside human cells (CHL-1 cells [4]): total conversion | detection of parent compound inside cells (CHL-1 cells [4]): undetectable | effect on VASH1-mediated detyrosination in vitro (VASH1 [3]): did not have any effect | in vitro VASH inhibition activity (VASH1 [1]): did not inhibit | effect on VASH2-mediated detyrosination in vitro (VASH2): did not have any effect

CCOC(=O)[C@H](Cc1ccc(OCc2ccccc2)cc1)NC(=O)[C@H]1O[C@@H]1C(=O)N[C@H](CCCC(=O)O)C(=O)NCCc1ccccc1 [IBMT-29]
pIC50 (VASH1 [1]; [7]): 5.38 | Fold change/ LV-80 (VASH1 [1]): 14

O=C([O-])CCC[C@H](NC(=O)[C@H]1O[C@@H]1C(=O)N[C@@H](Cc1ccc(OCc2ccccc2)cc1)C(=O)[O-])C(=O)NCCc1ccccc1.[Na+].[Na+] [IBMT-34]
in cellulo activity compared with reference compounds ([2]; taxol treated CHL-1 cells): same activity | pIC50 (VASH1 [1]; [7]): 6.52 | in vitro activity compared with reference compounds (VASH1 [1]): same activity | Fold change/ LV-80 (VASH1 [1]): 1 | solubility in water or PBS solution [5]: dramatically increased

O=C(O)[C@H](Cc1ccc(O)cc1)NC(=O)[C@H]1O[C@@H]1C(=O)N[C@@H](Cc1ccc(O)cc1)C(=O)O [LV-59]
pIC50 (VASH1 [1]; [7]): 5.92 | Fold change/ LV-80 (VASH1 [1]): 4

CC(=O)O[C@H]1C(=O)[C@@]2(C)[C@H]([C@H](OC(=O)c3ccccc3)[C@]3(O)C[C@H](OC(=O)[C@H](O)[C@@H](NC(=O)c4ccccc4)c4ccccc4)C(C)=C1C3(C)C)[C@]1(OC(C)=O)CO[C@@H]1C[C@@H]2O [taxol, paclitaxel]
cell viability (CHL-1 cells [6]): significant reduction

O=C(O)C(Cc1ccc(O)cc1)NC(=O)C1OC1C(=O)O (stereo not drawn) [SD-139sapo, reference compound]
in vitro activity compared with reference compounds (VASH1 [1]): very less potent than LV-80

CCOC(=O)[C@H](Cc1ccc(OCC)cc1)NC(=O)[C@H]1O[C@@H]1C(=O)OCC [LV-111]
pIC50 [2, 8]: 7.70 | effect on VASH1-mediated detyrosination in vitro (VASH1 [3]): did not have any effect | effect on VASH2-mediated detyrosination in vitro (VASH2): did not have any effect

CCOc1ccc(C[C@H](NC(=O)[C@H]2O[C@@H]2C(=O)NCCCCC(=O)O)C(=O)O)cc1 [IBMT-26]
pIC50 (VASH1 [1]; [7]): 5.41 | Fold change/ LV-80 (VASH1 [1]): 13

NC(=O)C(CCCC(=O)O)NC(=O)C1OC1C(=O)NC(Cc1ccc(O)cc1)C(=O)O (stereo not drawn) [LV-43]
in cellulo activity compared with reference compounds ([2]; taxol treated CHL-1 cells): much less efficient than Epo-Y

O=C(O)[C@H](Cc1ccc(OCc2ccccc2)cc1)NC(=O)[C@H]1O[C@@H]1C(=O)N[C@@H](Cc1ccc(OCc2ccccc2)cc1)C(=O)O [Synthé Mix hydro]
pIC50 (VASH1 [1]; [7]): 6.22 | Fold change/ LV-80 (VASH1 [1]): 2

CCOC(=O)CCCCNC(=O)[C@H]1O[C@@H]1C(=O)N[C@@H](Cc1ccc(OCC)cc1)C(=O)OCC [IBMT23]
in cellulo activity compared with reference compounds ([2]; taxol treated CHL-1 cells): more potent on cultured cells than LV80; also recorded: as potent in vivo as LV80 | inhibition of tubulin detyrosination in cellulo ([2]; taxol treated CHL-1 cells): excellent | in vitro VASH inhibition activity (VASH1 [1]): inactive
